Reference: patent US20260076973A1 (priority 2023, published 2026)
Where a name gives a salt, the structure may show the parent alone. Read-outs that look alike come from different tables or passages of the source. Where a SMILES comes first, the peptide text is derived from it.

How the values were obtained:
VeroE6 cells = experiment: Cytotoxicity counter screen in Vero E6 cells (Cell Titer-Glo); settings: read-out: Cytotoxicity CC50; reference compounds, Vero E6 cells, 72 hours
SARS-CoV-2 (WA1) = experiment: microbe, parasite or virus in culture; format: cell-based; settings: for antiviral effect of positive controls in the CPE assay: SARS-CoV-2 CPE assay
[1] = Cytotoxicity counter screen in Vero E6 cells (Cell Titer-Glo); settings: African green monkey
OC43 virus = experiment: OC43 coronavirus infection assay in Huh7.5 cells; format: cell-based; settings: read-out: OC43 IC50
229E virus = experiment: 229E coronavirus infection assay in Huh7.5 cells; format: cell-based; settings: read-out: 229E IC50
[2] = test system: SARS CoV-2 nanoluciferase reporter virus (NLRV); experiment: microbe, parasite or virus in culture; format: cell-based; settings: Severe acute respiratory syndrome coronavirus 2, A549-ACE2, 72 h
[3] = Severe acute respiratory syndrome coronavirus 2, Vero C1008, 72 h, reference compounds, SARS-CoV-2 (WA1) CPE assay, Round 2, Vero E6, 72 hours, read-out: Antiviral IC50
[4] = Betacoronavirus 1, OC43, Huh7.5, 72 h
[5] = Severe acute respiratory syndrome coronavirus 2, Vero C1008
[6] = Severe acute respiratory syndrome coronavirus 2, Vero C1008, VIRADEM compounds, SARS-CoV-2(WA1) CPE assay, Round 2, concentration range 1000-0.05 nM, Vero E6, read-out: IC50
[7] = VIRADEM compounds, SARS-CoV-2(WA1) CPE assay, Round 2, concentration range 1000-0.05 nM, Vero E6, read-out: IC50

With CC(C)C[C@H](NC(=O)OCc1ccccc1)C(=O)N[C@@H](CC(C)C)C(=O)N[C@@H](Cc1ccc(O)cc1)C(=O)CF [Calpain Inhibitor IV, reference compound] (HELM PEPTIDE1{[O=C(OCc1ccccc1)[*:2]].L.L.Y.[FC[*:1]]}$$$$V2.0) the CC50 (VeroE6 cells) was greater than 7.17 µM, the “antiviral effect of positive controls in the CPE assay” value (SARS-CoV-2 (WA1)) was “dose dependent antiviral effect” and the IC50 (SARS-CoV-2 (WA1); reference compounds, SARS-CoV-2 (WA1) CPE assay, Round 2, Vero E6, 72 hours, read-out: Antiviral IC50) was 240 nM.
For CCN(CC)CCCC(C)Nc1ccnc2cc(Cl)ccc12 (stereo not shown) [Chloroquine, reference compound], the CC50 at 72 h [1] was greater than 30 µM, the “antiviral effect of positive controls in the CPE assay” value (SARS-CoV-2 (WA1)) was “dose dependent antiviral effect” and the IC50 (SARS-CoV-2 (WA1); [3]) was 4030 nM.
Work on CCN(CCO)CCCC(C)Nc1ccnc2cc(Cl)ccc12 (stereo not shown) [Hydroxychloroquine, reference compound] yielded a CC50 at 72 h ([1]; Vero E6 cells) greater than 30 µM and an IC50 (SARS-CoV-2 (WA1); [3]) of 2100 nM.
For CCC(CC)COC(=O)[C@H](C)N[P@](=O)(OC[C@H]1O[C@@](C#N)(c2ccc3c(N)ncnn23)[C@H](O)[C@@H]1O)Oc1ccccc1 [Remdesivir, reference compound], the CC50 at 72 h [1] was greater than 30 µM, the IC50 (OC43 virus; [4]) was 9.7 nM and the IC50 (SARS-CoV-2 (WA1); [5]) was 7000 to 10000 nM. The IC50 (SARS-CoV-2 (WA1); Severe acute respiratory syndrome coronavirus 2, Vero C1008, 72 h, read-out: Antiviral IC50) was 10800 nM, the “Selectivity Index (CC50/IC50)” value (SARS-CoV-2 (WA1); reference compounds, Round 2) was greater than 2.8 and the IC50 (229E virus; Huh7.5, 48 h) was 13 nM.
Cc1ccc(Nc2nc(Nc3ccc(C)c(C)c3)nc(N3CCOCC3)n2)cc1 [VIRADEM-11141] showed an IC50 (OC43 virus; [4]) of 1650 nM, an IC50 (SARS-CoV-2 (WA1); [5]) of 120 nM and an IC50 (229E virus; Huh7.5, 48 h) of 260 nM. The IC50 [2] was 97 nM and the IC90 [2] was 118 nM.
With CC(=O)Nc1ccc(Nc2nc(Nc3ccc(Cl)cc3)nc(N3CCOCC3)n2)cc1 [VIRADEM-11847, N-{4-[4-(4-Chlorophenylamino)-6-morpholin-4-yl-[1,3,5]triazin-2-ylamino]-phenyl}-acetamide] the IC50 (OC43 virus; Betacoronavirus 1, OC43, 72 h, Huh7.5 cells, fixed 3 days after infection) was 992 nM, the IC50 (SARS-CoV-2 (WA1); [6]) was 20 nM and the IC50 (229E virus; 48 h, Huh7.5 cells, fixed 2 days after infection) was 138 nM. For the same compound, the IC50 [2] was 32 nM and the IC90 [2] was 41 nM.
In the case of CC(=O)Nc1ccc(Nc2nc(Nc3ccc(C)c(C)c3)nc(N3CCOCC3)n2)cc1 [VIRADEM-11918, N-{4-[4-(3,4-Dimethylphenylamino)-6-morpholin-4-yl-[1,3,5]triazin-2-ylamino]phenyl}-acetamide], the IC50 [2] is reported as 19 nM and the IC90 [2] is reported as 29 nM.
For COc1ccc(Nc2nc(N3CCOCC3)nc(N3CCCc4ccccc43)n2)cc1 [VIRADEM-15272, [4-(3,4-Dihydro-2H-quinolin-1-yl)-6-morpholin-4-yl-[1,3,5]triazin-2-yl]-(4-methoxyphenyl)-amine], the IC50 (SARS-CoV-2 (WA1); [6]) was greater than 1000 nM.
Cc1ccc(Nc2nc(N3CCOCC3)nc(N3CCCc4ccccc43)n2)cc1C [VIRADEM-15278, [4-(3,4-Dihydro-2-H-quinolin-1-yl)-6-morpholin-4-yl-[1,3,5]triazin-2-yl]-(3,4-dimethylphenyl)-amine] showed an IC50 (SARS-CoV-2 (WA1); [7]) of 120 nM.
Work on Cc1ccc(Nc2nc(Nc3cccc4ccccc34)nc(N3CCOCC3)n2)cc1 [VIRADEM-15279, 6-Morpholin-4-yl-N-naphtalen-1-yl-N^1-p-tolyl-[1,3,5]triazine-2,4-diamine] yielded an IC50 (SARS-CoV-2 (WA1); [7]) of 80 nM.
Cc1ccc(S(=O)(=O)NNc2nc(N3CCOCC3)nc(N3CCOCC3)n2)cc1 [VIRADEM-15295, N-(4,6-Dimorpholin-4-yl-[1,3,5]triazin-2-yl)-N^1-tozylhydrazin] showed an IC50 (SARS-CoV-2 (WA1); [7]) greater than 1000 nM.
Work on c1ccc2c(c1)CCN2c1nc(N2CCOCC2)nc(N2CCOCC2)n1 [VIRADEM-15355, 1-(4,6-Dimorpholin-4-yl-[1,3,5]triazin-2-yl)-2,3-dihydro-1H-indole] yielded an IC50 (SARS-CoV-2 (WA1); [6]) greater than 1000 nM.
For COc1ccc(Nc2nc(Nc3ccc(C(N)=O)cc3)nc(N3CCOCC3)n2)cc1 [VIRADEM-15356, 4-[4-(4-Methoxyphenylamino)-6-morpholin-4-yl-[1,3,5]triazin-2-ylamino]-benzamide], the IC50 (SARS-CoV-2 (WA1); [6]) was 120 nM.
NC(=O)C1CCN(c2nc(N3CCOCC3)nc(N3CCOCC3)n2)CC1 [VIRADEM-15361, 1-(4,6-Dimorpholin-4-yl-[1,3,5]triazin-2-yl)-piperidine-4-carboxylic acid amide] showed an IC50 (SARS-CoV-2 (WA1); [6]) greater than 1000 nM.
C1CCCN(c2nc(N3CCOCC3)nc(N3CCOCC3)n2)CC1 [VIRADEM-16523, 1-(4,6-Dimorpholin-4-yl-[1,3,5]triazin-2-yl)-azepane] showed an IC50 (SARS-CoV-2 (WA1); [6]) greater than 1000 nM.
COc1ccc(Nc2nc(Nc3cccc(C)c3)nc(N3CCOCC3)n2)cc1 [hydrochloride] gave an IC50 (SARS-CoV-2 (WA1); [5]) of 230 nM.
“N-(3-Chlorophenyl)-N^1-phenyl)-6-pyrrolidin-1-yl-[1,3,5]triazine-2,4-diamine hydrochloride [VIRADEM-12312]” gave an IC50 (SARS-CoV-2 (WA1); [7]) greater than 1000 nM.
Work on “N-(3-Fluorophenyl)-6-pyrrolidin-1-yl-1,3,5]triazine-2,4-diamine hydrochloride [VIRADEM-12180]” yielded an IC50 (SARS-CoV-2 (WA1); [7]) greater than 1000 nM.
